Measured values reported in article PMC12136037, “Type II kinase inhibitors that target Parkinson’s disease–associated LRRK2” (Science Advances, 2025).

Tests used:
Assay in all cases: DSF 100 kinase selectivity screen;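 note: compound tested at 20 µM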
Assay type in all cases: binding
[1] = biological target: T1, ~100 representative kinases (Homo sapiens, UniProt Q00532); conditions: Protein CDKL1; average of three replicates
T1 construct: Recombinant protein kinase domains with a concentration of 2 μM
Protocol: (§1) Recombinant protein kinase domains with a concentration of 2 μM were mixed with a 20 μM compound solution in dimethyl sulfoxide (DMSO), 20 mM Hepes (pH 7.5), and 500 mM NaCl. SYPRO Orange (5000×, Invitrogen) was added as a fluorescence probe (1μl/ml). Subsequently, temperature-dependent protein unfolding profiles were measured using the QuantStudio 5 realtime PCR machine (Thermo Fisher Scientific, Waltham, MA, USA). […] The temperature was raised with a step rate of 3°C/min. […] Differences in melting temperature are given as ΔTm values in degrees Celsius. […]

[2] = biological target: T2, ~100 representative kinases (Homo sapiens, UniProt P54756); conditions: Protein EPHA5; average of three replicates
T2 construct: Recombinant protein kinase domains with a concentration of 2 μM
Protocol: as §1

[3] = biological target: T3, ~100 representative kinases (Homo sapiens, UniProt Q96NX5); conditions: Protein CAMK1G; average of three replicates
T3 construct: Recombinant protein kinase domains with a concentration of 2 μM
Protocol: as §1

[4] = biological target: T4, ~100 representative kinases (Homo sapiens, UniProt Q00536); conditions: protein PCTK1; average of three replicates
T4 construct: Recombinant protein kinase domains with a concentration of 2 μM
Protocol: as §1

[5] = biological target: T5, ~100 representative kinases (Homo sapiens, UniProt Q09013); conditions: Protein DMPK1; average of three replicates
T5 construct: Recombinant protein kinase domains with a concentration of 2 μM
T5 sequence (Q09013 1-629): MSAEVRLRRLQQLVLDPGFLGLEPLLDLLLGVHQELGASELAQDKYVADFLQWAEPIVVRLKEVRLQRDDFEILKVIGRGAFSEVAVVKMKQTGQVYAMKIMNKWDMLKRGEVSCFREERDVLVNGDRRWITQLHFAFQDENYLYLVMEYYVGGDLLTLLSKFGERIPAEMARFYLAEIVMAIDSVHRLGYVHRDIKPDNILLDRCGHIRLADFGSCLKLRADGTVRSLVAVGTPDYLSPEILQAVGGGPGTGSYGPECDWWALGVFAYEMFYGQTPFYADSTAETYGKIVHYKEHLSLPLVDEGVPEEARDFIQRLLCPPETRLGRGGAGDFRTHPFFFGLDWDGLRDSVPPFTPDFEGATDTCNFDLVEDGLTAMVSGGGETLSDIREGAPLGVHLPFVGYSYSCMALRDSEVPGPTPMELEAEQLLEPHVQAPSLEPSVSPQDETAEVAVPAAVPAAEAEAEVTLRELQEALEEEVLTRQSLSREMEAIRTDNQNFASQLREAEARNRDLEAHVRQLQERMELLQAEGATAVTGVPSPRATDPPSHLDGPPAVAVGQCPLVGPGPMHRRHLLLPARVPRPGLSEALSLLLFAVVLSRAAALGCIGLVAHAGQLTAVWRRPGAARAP
Protocol: as §1

[6] = biological target: T6, ~100 representative kinases (Homo sapiens, UniProt Q9Y243); conditions: Protein AKT3; average of three replicates
T6 construct: Recombinant protein kinase domains with a concentration of 2 μM
Protocol: as §1

[7] = biological target: T7, ~100 representative kinases (Homo sapiens, UniProt P55201); conditions: Protein BRPF1; average of three replicates
T7 construct: Recombinant protein kinase domains with a concentration of 2 μM
T7 sequence (P55201 1-1214): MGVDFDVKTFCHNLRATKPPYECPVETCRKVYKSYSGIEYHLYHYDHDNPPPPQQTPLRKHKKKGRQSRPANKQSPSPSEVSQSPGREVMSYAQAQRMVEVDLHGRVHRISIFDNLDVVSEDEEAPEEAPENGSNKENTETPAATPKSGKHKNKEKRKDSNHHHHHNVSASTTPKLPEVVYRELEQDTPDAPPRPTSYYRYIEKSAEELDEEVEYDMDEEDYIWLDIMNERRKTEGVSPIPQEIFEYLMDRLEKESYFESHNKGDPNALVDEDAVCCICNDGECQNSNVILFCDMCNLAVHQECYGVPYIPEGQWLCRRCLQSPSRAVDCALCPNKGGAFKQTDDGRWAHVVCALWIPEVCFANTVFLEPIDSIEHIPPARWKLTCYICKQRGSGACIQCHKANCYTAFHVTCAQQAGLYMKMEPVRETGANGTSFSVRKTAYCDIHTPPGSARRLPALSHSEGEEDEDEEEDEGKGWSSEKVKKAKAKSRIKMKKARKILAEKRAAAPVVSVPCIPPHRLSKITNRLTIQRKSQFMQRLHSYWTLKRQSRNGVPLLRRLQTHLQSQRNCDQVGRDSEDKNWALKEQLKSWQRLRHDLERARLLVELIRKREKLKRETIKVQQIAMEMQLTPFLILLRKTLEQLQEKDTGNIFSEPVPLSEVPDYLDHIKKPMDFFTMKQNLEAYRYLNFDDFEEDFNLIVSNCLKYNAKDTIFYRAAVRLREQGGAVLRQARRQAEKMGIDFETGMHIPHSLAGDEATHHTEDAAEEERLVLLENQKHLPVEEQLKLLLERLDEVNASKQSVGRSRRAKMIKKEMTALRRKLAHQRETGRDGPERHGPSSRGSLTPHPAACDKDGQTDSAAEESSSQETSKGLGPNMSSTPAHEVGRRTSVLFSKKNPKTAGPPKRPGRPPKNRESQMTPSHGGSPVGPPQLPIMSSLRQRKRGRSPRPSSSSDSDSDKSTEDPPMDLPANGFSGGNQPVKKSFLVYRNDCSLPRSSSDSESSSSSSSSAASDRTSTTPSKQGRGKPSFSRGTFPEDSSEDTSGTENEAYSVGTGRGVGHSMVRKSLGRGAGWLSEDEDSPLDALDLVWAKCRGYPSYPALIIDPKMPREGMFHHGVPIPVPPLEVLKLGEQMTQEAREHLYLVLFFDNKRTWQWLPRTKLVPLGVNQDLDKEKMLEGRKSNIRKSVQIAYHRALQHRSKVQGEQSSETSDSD
Protocol: as §1

[8] = biological target: T8, ~100 representative kinases (Homo sapiens, UniProt Q2M2I8); conditions: Protein AAK1; average of three replicates
T8 construct: Recombinant protein kinase domains with a concentration of 2 μM
Protocol: as §1

[9] = biological target: T9, ~100 representative kinases (Homo sapiens, UniProt P34947); conditions: protein GPRK5; average of three replicates
T9 construct: Recombinant protein kinase domains with a concentration of 2 μM
Protocol: as §1

[10] = biological target: T10, ~100 representative kinases (Homo sapiens, UniProt Q9NSY1); conditions: Protein BMP2K; average of three replicates
T10 construct: Recombinant protein kinase domains with a concentration of 2 μM
Protocol: as §1

T3 sequence (Q96NX5 whole entry, the tested form may be a part): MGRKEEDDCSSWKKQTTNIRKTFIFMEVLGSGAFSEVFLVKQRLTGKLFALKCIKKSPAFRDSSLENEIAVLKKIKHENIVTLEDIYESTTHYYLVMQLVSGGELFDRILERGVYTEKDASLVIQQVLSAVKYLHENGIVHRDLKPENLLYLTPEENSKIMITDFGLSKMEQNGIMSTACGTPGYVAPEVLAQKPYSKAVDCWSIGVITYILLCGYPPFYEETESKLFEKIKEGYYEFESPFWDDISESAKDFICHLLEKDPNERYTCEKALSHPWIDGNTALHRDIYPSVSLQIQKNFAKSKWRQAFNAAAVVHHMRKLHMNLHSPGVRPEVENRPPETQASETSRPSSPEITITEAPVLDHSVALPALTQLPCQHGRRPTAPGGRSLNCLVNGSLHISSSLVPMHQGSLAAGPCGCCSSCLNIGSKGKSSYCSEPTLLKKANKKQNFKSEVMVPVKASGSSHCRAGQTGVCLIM
T4 sequence (Q00536 whole entry, the tested form may be a part): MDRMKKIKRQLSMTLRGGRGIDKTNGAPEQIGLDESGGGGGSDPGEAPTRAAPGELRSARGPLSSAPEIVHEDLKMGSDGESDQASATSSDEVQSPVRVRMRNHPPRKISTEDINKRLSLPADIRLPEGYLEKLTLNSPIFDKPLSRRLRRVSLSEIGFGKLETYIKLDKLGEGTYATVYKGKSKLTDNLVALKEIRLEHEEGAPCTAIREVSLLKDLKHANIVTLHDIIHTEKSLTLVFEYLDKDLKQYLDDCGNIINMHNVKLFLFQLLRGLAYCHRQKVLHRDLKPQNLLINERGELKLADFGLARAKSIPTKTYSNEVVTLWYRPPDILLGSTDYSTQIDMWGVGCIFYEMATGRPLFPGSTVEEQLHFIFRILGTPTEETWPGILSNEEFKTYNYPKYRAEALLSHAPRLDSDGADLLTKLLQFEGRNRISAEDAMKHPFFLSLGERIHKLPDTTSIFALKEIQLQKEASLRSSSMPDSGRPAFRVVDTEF
T8 sequence (Q2M2I8 whole entry, the tested form may be a part): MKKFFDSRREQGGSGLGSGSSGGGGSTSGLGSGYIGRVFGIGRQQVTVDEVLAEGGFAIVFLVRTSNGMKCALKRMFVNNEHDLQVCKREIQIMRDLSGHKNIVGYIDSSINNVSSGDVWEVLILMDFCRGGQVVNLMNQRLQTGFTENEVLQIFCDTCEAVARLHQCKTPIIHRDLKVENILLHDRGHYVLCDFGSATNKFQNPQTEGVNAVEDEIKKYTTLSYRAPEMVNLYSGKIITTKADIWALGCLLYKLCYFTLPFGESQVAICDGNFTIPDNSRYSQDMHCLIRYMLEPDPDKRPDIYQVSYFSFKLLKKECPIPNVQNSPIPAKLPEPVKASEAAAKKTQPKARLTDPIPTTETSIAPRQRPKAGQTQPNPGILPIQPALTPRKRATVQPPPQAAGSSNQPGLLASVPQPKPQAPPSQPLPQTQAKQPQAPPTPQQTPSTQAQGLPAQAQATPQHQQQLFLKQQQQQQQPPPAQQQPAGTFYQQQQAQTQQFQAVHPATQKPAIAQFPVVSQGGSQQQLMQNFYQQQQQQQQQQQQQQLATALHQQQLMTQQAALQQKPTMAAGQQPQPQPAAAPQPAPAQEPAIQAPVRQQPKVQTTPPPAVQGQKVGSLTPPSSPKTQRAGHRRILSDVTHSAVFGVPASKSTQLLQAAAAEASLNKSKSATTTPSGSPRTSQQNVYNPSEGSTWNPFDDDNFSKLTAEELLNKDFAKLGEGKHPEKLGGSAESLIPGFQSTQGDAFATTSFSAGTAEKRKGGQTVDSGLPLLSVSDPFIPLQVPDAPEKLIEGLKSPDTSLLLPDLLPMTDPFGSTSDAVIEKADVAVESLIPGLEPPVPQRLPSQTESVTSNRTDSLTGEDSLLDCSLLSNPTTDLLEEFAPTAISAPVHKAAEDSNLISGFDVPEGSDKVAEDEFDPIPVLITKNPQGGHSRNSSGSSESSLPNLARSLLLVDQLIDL
T1 sequence (Q00532 whole entry, the tested form may be a part): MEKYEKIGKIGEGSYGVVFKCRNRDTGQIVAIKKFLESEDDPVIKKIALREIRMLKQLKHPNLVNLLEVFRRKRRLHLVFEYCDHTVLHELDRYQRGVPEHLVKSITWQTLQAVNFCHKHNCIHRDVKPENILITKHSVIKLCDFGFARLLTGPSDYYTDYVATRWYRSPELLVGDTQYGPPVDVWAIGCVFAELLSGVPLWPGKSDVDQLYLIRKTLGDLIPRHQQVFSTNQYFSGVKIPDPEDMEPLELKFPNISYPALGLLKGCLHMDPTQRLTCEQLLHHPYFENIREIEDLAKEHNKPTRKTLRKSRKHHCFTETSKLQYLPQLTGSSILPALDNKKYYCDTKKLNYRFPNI
T9 sequence (P34947 whole entry, the tested form may be a part): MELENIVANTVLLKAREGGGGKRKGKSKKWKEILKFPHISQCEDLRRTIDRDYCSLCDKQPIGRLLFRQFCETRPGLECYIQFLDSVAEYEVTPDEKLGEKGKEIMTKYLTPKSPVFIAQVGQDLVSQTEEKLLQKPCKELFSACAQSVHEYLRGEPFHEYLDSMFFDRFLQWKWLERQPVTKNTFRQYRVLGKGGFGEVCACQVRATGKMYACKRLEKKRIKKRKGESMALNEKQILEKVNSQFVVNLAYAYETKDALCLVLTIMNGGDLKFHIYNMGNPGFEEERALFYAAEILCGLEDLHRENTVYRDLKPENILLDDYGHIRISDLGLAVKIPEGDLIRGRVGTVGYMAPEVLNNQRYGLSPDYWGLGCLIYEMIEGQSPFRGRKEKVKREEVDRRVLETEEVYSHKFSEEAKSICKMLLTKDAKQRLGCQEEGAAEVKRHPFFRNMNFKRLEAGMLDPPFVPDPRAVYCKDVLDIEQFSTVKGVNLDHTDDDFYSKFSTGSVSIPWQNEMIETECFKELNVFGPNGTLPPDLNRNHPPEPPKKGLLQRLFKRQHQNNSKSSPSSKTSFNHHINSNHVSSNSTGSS
T10 sequence (Q9NSY1 whole entry, the tested form may be a part): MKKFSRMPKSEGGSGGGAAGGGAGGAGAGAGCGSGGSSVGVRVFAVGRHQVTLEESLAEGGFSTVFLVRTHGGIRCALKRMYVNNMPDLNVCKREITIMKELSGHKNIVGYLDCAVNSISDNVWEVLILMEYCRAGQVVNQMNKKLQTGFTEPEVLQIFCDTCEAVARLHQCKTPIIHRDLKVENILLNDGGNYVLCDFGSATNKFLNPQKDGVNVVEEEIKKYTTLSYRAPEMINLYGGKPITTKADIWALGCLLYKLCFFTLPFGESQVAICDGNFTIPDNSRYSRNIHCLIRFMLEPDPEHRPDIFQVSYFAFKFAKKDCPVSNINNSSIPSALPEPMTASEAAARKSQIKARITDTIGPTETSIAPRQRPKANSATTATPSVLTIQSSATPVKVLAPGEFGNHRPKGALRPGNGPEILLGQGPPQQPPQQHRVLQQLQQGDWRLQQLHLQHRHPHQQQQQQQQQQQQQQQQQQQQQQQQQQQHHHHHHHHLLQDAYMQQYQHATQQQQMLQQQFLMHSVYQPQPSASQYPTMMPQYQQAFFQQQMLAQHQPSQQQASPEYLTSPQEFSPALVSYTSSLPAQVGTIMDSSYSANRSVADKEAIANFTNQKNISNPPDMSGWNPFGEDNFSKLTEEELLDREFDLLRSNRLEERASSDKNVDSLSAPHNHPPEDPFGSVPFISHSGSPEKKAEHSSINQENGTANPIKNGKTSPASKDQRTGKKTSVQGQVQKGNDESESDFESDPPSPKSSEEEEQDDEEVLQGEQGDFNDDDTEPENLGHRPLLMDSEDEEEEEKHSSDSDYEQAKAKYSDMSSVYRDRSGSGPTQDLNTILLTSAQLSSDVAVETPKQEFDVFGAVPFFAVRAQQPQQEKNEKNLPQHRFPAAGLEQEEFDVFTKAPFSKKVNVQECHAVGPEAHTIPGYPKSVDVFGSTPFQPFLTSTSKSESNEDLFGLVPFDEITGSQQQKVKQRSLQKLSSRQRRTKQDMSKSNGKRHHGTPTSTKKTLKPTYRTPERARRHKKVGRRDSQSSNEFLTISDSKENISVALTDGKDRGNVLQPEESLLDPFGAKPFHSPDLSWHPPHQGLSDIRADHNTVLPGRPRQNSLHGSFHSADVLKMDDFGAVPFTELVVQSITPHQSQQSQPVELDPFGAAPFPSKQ
T6 sequence (Q9Y243 whole entry, the tested form may be a part): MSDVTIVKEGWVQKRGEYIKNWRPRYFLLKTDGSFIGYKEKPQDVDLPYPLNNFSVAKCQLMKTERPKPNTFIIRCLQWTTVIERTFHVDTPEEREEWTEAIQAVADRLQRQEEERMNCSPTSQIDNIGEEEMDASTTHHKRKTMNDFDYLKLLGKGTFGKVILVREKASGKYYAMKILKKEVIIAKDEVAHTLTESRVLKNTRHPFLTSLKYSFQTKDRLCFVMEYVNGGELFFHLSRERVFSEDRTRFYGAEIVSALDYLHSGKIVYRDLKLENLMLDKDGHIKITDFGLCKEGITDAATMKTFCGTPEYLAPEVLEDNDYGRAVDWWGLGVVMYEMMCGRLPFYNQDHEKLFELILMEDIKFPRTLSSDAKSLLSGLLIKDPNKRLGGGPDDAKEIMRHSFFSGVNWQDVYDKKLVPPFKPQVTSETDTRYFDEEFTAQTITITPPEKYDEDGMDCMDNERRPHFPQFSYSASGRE

SMILES | dTm [1] [K] | dTm [2] [K] | dTm [3] [K] | dTm [4] [K] | dTm [5] [K] | dTm [6] [K] | dTm [7] [K] | dTm [8] [K] | dTm [9] [K] | dTm [10] [K]
Cc1ccc(NC(=O)C2(C(=O)Nc3cccc(-c4c[nH]c5ncnc(N6CCOCC6)c45)c3)CC2)cc1 [Compound 14] | 1.85 | 3.63 | 1.22 | 6.61 | -0.76 | 0.32 | -0.72 | 2.28 | 0.90 | 5.95
O=C(Nc1ccc(Cl)cc1)C1(C(=O)Nc2cccc(-c3c[nH]c4ncnc(N5CCOCC5)c34)c2)CC1 [Compound 13] | 3.38 | 4.99 | 3.50 | 9.13 | -0.32 | 0.45 | -0.65 | 3.55 | 1.38 | 6.46
COc1cc(C(=O)N2CCOCC2)c(F)cc1Nc1nc(N(C)C)c2c(Cl)c[nH]c2n1 [Compound 36] | 0.37 | -0.96 | 4.24 | 0.43 | 0.30 | 0.29 | -1.63 | 2.52 | 0.46 | 1.71
O=C(Nc1ccc(F)cc1)C1(C(=O)Nc2cccc(-c3c[nH]c4ncnc(N5CCOCC5)c34)c2)CC1 [Compound 2] | 2.59 | 3.27 | 1.77 | 5.80 | -0.63 | 0.65 | 0.13 | 3.27 | -0.82 | 6.37
COc1ccc(NC(=O)C2(C(=O)Nc3cccc(-c4c[nH]c5ncnc(N6CCOCC6)c45)c3)CC2)cc1 [Compound 16] | 1.33 | -0.30 | -0.76 | 5.58 | -0.98 | 0.25 | -0.96 | 1.75 | 0.44 | 4.89
COc1cc(S(C)(=O)=O)ccc1Nc1nc(N(C)C)c2c(Cl)c[nH]c2n1 [Compound 37] | 0.44 | -0.48 | 1.99 | -0.043 | 0.0114 | -0.25 | -0.21 | 0.85 | 1.16 | 0.08

Results, then the compound that gave them:

dTm [1] [K] | dTm [2] [K] | dTm [3] [K] | dTm [4] [K] | dTm [5] [K] | dTm [6] [K] | dTm [7] [K] | dTm [8] [K] | dTm [9] [K] | dTm [10] [K] | SMILES
3.41 | -0.41 | 2.69 | 3.50 | -0.08 | -0.39 | 1.49 | -0.63 | -0.20 | 8.56 | O=C(Nc1cccc(-c2c[nH]c3ncnc(N4CCOCC4)c23)c1)C1(C(=O)Nc2cccc3c2CCC3)CC1 [Compound 11]
3.38 | 2.50 | 3.39 | 7.39 | -0.69 | 1.04 | 1.47 | 4.45 | 0.43 | 8.58 | O=C(Nc1cccc(-c2c[nH]c3ncnc(N4CCOCC4)c23)c1)C1(C(=O)Nc2ccc(F)c(Cl)c2)CC1 [Compound 18]
1.46 | 0.97 | 0.49 | 3.77 | -1.04 | 0.50 | -0.10 | 3.04 | 0.16 | 6.47 | Cc1cc(F)ccc1NC(=O)C1(C(=O)Nc2cccc(-c3c[nH]c4ncnc(N5CCOCC5)c34)c2)CC1 [Compound 24]
